Measured values as given in patent US10696674B2, “Spirolactams as inhibitors of ROCK” (BRISTOL-MYERS SQUIBB COMPANY, priority 2016, dated 2020).
Like-named read-outs stand apart in the source and are kept apart here.

Columns and labels:
[1] = biological target: ROCK2 (Homo sapiens, UniProt O75116); assay: ROCK2 assay (Caliper LABCHIP peptide phosphorylation); assay type: biochemical; conditions: 5 μM ATP, 1.5 μM peptide substrate
Description: The effectiveness of compounds of the present invention as ROCK inhibitors can be determined in a 30 μL assay containing 20 mM HEPES, pH 7.5, 20 mM MgCl2, 0.015% Brij-35, 4 mM DTT, 5 μM ATP and 1.5 μM peptide substrate (FITC-AHA-AKRRRLSSLRA-OH) (SEQ ID NO.1). Compounds were dissolved in DMSO so that the final concentration of DMSO was <2%, and the reaction was initiated with Rho kinase variants. After incubation, the reaction was terminated by the addition of EDTA and the phosphorylated and non-phosphorylated peptides separated using a LABCHIP® 3000 Reader (Caliper Life Sciences). […] Compounds were tested in dose-response format, and the inhibition of kinase activity was calculated at each concentration of compound. The inhibition data were fit using a curve-fitting program to determine the IC50; i.e., the concentration of compound required to inhibit 50% of kinase activity.
Representative Examples were tested in the ROCK2 assay described above and found having ROCK2 inhibitory activity. The ranges of the ROCK2 IC50 values are as follows: ROCK2 IC50: ++++ (<3 nM) +++ (3-30 nM) ++ (30-300 nM) + (300-2000 nM)

[2] = test system: ROCK; conditions: cited from earlier work
[3] = test system: ROCK; conditions: rats, balloon injury model; cited from earlier work
[4] = test system: ROCK; conditions: rat, in vivo; cited from earlier work
[5] = test system: ROCK; conditions: long term treatment; cited from earlier work
[6] = test system: ROCK; conditions: rat, in vivo; cited from earlier work; remark: listed apart in the source

Chain of ROCK2 (O75116 whole entry, species assumed): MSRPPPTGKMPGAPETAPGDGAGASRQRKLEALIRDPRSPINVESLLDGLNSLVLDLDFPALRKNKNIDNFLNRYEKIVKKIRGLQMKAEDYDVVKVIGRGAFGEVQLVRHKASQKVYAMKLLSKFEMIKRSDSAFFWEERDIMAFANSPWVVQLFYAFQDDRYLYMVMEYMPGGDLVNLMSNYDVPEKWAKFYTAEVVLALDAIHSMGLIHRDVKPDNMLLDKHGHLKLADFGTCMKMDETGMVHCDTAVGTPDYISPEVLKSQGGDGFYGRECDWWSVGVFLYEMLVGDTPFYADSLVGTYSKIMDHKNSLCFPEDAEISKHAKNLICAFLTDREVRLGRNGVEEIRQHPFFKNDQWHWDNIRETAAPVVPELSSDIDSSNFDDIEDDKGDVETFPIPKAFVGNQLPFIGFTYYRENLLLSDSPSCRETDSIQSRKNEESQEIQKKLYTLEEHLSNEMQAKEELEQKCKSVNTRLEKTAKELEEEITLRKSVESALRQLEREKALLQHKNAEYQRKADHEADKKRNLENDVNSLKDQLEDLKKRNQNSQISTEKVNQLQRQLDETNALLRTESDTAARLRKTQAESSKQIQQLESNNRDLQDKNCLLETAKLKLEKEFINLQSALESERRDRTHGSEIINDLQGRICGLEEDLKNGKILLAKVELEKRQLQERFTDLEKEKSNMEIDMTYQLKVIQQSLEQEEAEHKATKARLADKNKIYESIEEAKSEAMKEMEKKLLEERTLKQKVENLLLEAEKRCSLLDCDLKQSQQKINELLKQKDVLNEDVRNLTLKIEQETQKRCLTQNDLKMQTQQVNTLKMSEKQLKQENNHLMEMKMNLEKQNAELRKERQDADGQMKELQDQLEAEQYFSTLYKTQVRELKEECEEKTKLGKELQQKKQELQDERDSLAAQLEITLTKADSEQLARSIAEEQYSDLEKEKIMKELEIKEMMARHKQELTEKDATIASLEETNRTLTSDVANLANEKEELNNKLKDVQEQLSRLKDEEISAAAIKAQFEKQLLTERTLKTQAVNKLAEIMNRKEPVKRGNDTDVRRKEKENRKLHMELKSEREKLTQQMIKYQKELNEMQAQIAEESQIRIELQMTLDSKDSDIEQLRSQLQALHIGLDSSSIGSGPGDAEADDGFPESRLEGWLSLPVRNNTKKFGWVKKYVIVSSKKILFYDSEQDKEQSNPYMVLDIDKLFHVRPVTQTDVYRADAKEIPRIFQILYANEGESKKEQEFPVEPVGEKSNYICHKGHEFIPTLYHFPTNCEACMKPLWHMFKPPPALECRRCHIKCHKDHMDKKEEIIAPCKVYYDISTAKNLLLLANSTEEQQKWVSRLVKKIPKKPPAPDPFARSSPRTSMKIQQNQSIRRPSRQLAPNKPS

O=C1N(c2ccc(-c3cn[nH]c3)cc2)CC(CO)[C@]12Cc1ccccc1N2 (stereo partly drawn) [Example 55, (2R)-1′-(4-(1H-pyrazol-4-yl)phenyl)-4′-(hydroxymethyl)spiro[indoline-2,3′-pyrrolidin]-2′-one]
IC50 [1]: 30 to 300 nM

O=C1N(c2ccc(-c3cn[nH]c3)cc2)CC(CO)C12CCc1ccccc1N2 (stereo not drawn) [Example 56, 1-(4-(1H-pyrazol-4-yl)phenyl)-4-(hydroxymethyl)-3′,4′-dihydro-1′H-spiro[pyrrolidine-3,2′-quinolin]-2-one]
IC50 [1]: < 3 nM

C[C@@H](N)[C@H]1CC[C@H](C(=O)Nc2ccncc2)CC1 [Example Y-27632, Y-27632]
blood pressure ([2]; control rats): only a minor effect on blood pressure
blood pressure ([2]; spontaneously hypertensive rat, renal hypertensive rat and deoxycortisone acetate salt hypertensive rat models): significantly decrease blood pressure
neointimal formation [3]: inhibited neointimal formation
ventricular hypertrophy, fibrosis and function [4]: improve ventricular hypertrophy, fibrosis and function

O=S(=O)(c1cccc2cnccc12)N1CCCNCC1 [fasudil]
coronary constrictive remodeling [5]: promote a regression of coronary constrictive remodeling
coronary stenosis [5]: progressively reduce coronary stenosis
infarct size and neurologic deficit [6]: reduce both the infarct size and neurologic deficit
